Laboratory results from article PMC4728560 (Scientific Reports, 2016).

System: BAX
Assay: In cellulo BRET between TCTP and YFP-fused BAX
Assay type: cell-based
Settings: MCF-7 cells; donor TCTP, acceptor YFP-fused BAX
Method: BRET assays were performed as indicated in Bah et al.[41]. See Supplementary Information for full details.
-3Δ before cloning into a pnEA -TH plasmid for expression of an N-terminal 6His fusion protein using NdeI and BamHI restriction sites25. The cDNA of human Bcl-xL protein, target gene bank number BC019307, was ordered from PlasmID (DANA-FARBER/HARVARD CANCER CENTER). Bcl-xL(Δ27-81ΔCT) (deletion of residues 27-81 and C-terminal 24 residues) was cloned in a pnEA-TH25 plasmid for expression as a N-terminal 6His fusion protein. Primers used for the deletion of the C-terminal part are 5'- […]
TTTCG-3', including NdeI and BglII restriction sites respectively. […]
BRET assays were performed as indicated in Bah et al.26. […] Light emissions at 475 nm and 530 nm were measured sequentially using the Mithras ﬂuorescence luminescence detector […]
LB 940 (Berthold, Thoiry, France) after adding the luciferase substrate coelenterazine H (Uptima, MontLucon, France) at a ﬁnal concentration of […]. BRET signals (mB.U,milliBRET Unit) were determined by calculating the ra tio of the light emitted by the acceptor (530 nm) over the light emitted by the donor (475 nm). Background BRET signals, determined by transient transfection of pCMV-Bcl-xL or pCMV-Bax instead of the corresponding pEYFP plasmids, were subtracted from YFP-specific BRET signals. […]

## TCTP: Translationally Controlled Tumor Protein (TCTP/tpt1), recombinant full-length
  BRET signals with BAX: no specific BRET signals
